From article PMC6409085, “Three odorant-binding proteins are involved in the behavioral response of Sogatella furcifera to rice plant volatiles” (PeerJ, 2019)
Where “and” joins values, the source holds several entries; their conditions need not be identical. Equal values may be shown once.

How the values were obtained:
SfurOBP1 = SfurOBP1 (Sogatella furcifera, UniProt V5T8N5); assay: biochemical; assay type: binding; settings: for Fluorescence competitive binding assay, fluorescence intensity: OBP1, three replicate columns
Sequence of SfurOBP1 (V5T8N5 entry or part of it): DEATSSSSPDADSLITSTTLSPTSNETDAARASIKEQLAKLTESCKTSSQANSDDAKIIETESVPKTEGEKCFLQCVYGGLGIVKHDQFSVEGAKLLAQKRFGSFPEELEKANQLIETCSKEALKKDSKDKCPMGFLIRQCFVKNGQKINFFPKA
Summary of the method: (§1)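 First, 2.0 µM protein in 50 mM Tris-HCl (pH 7.4) was titrated with 1-NPN to obtain K1-NPN. Then odorants (2–20 µM final) competed against 2.0 µM 1-NPN, with fluorescence (ex 337 nm) recorded after 2 min. Ki was computed from IC50 via Ki = IC50/(1 + [1-NPN]/K1-NPN).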

SfurOBP3 = SfurOBP3 (Sogatella furcifera, UniProt V5T818); assay: biochemical; assay type: binding; settings: for Fluorescence competitive binding assay, fluorescence intensity: OBP3, three replicate columns
Sequence of SfurOBP3 (V5T818 entry or part of it): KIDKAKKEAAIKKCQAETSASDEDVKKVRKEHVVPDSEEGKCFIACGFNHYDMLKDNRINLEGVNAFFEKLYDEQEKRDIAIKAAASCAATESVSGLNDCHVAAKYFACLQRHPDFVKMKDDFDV
Summary of the method: as §1

SfurOBP11 = SfurOBP11 (Sogatella furcifera, UniProt V5T6E3); assay: biochemical; assay type: binding
Sequence of SfurOBP11 (V5T6E3 entry or part of it): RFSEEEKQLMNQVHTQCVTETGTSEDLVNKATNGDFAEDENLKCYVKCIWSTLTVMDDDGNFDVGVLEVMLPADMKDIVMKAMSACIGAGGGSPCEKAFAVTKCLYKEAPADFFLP
Summary of the method: as §1

SfurOBP2 = SfurOBP2 (Sogatella furcifera, UniProt V5T759); assay: biochemical; assay type: binding
Sequence of SfurOBP2 (V5T759 entry or part of it): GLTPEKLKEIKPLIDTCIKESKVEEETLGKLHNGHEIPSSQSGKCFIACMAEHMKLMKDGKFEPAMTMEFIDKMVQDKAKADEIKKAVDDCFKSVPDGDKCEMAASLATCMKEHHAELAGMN
Summary of the method: as §1

S. furcifera adults = assay: Y-tube olfactometer behavioral trials; assay type: in vivo, Sogatella furcifera; settings: odorant 50 µL/L vs hexane
Procedure: To test the effect of the rice odorants on the behavior of S. furcifera adults, a glass Y-tube olfactometer (inner diameter 2.0 cm, stem 13 cm, arms 10 cm, angle of arms 60°) according to the previously described ([Wang et al., 2014b]) was employed. An airtight cubic box (70 by 45 by 30 cm) was used to position Y-tube, and the Y-tube was lighted by a 30-W filament lamp 25 cm above it. Air that filtered through activated charcoal and humidified with doubly distilled water was pumped in both arms at a flow rate of 300 mL/min. Two filter paper strips (10 by 1 cm) containing 100 µL odorant source (50 µL/L) and 100 µL control hexane were placed in two holding chambers in the front of the olfactometer, respectively. A S. furcifera adult (2 days after emergence, starved for 0.5 h) was randomly chosen and placed in the stem of the Y-tube. Each insect was given 10 min to choose between the two arms of the Y-tube, the choice was noted if the planthopper reached one-half of the arms’ lengths and stayed in the arm for more than 1 min. Besides, S. furcifera was considered as having no orientation preference. Forty-five individuals were used for each compound, each insect used only once. And the dual-choice experiment was done in an environmentally controlled room (25 ± 1 °C and 50% RH). A Chi-squared test was used to analyze the behavioral assay data by using SPSS19.0 (SPSS Inc., Chicago, IL, USA) software.

Compound: C=C(C)C1CC=C(C)CC1 (single isomer, unassigned; (+)) [(+)-limonene]
- Fluorescence competitive binding assay, fluorescence intensity (SfurOBP1; ligand concentration 2 (μM)): 5110 and 5104 and 5112
- Fluorescence competitive binding assay, fluorescence intensity (SfurOBP1; ligand concentration 4 (μM)): 5716 and 6377 and 5308
- Fluorescence competitive binding assay, fluorescence intensity (SfurOBP1; ligand concentration 6 (μM)): 6462 and 7662 and 6319
- Fluorescence competitive binding assay, fluorescence intensity (SfurOBP1; ligand concentration 8 (μM)): 6113 and 5754 and 14807
- Fluorescence competitive binding assay, fluorescence intensity (SfurOBP1; ligand concentration 10 (μM)): 5995 and 6375 and 7413
- Fluorescence competitive binding assay, fluorescence intensity (SfurOBP1; ligand concentration 12 (μM)): 5970 and 7970 and 8226
- Fluorescence competitive binding assay, fluorescence intensity (SfurOBP1; ligand concentration 14 (μM)): 5770 and 8418 and 5488
- Fluorescence competitive binding assay, fluorescence intensity (SfurOBP1; ligand concentration 16 (μM)): 4972 and 5953 and 5038
- Fluorescence competitive binding assay, fluorescence intensity (SfurOBP1; ligand concentration 18 (μM)): 6525 and 7403 and 8592
- Fluorescence competitive binding assay, fluorescence intensity (SfurOBP1; ligand concentration 20 (μM)): 7343 and 8136 and 7739
- IC50 (SfurOBP1; SfurOBP1, protein and 1-NPN both 2.0 µM, competitor 2-20 µM, read-out: IC50): > 20 µM
- Fluorescence competitive binding assay, fluorescence intensity (SfurOBP3; ligand concentration 2): 51848 and 49151 and 50500
- Fluorescence competitive binding assay, fluorescence intensity (SfurOBP3; ligand concentration 4): 50802 and 50041 and 48259
- Fluorescence competitive binding assay, fluorescence intensity (SfurOBP3; ligand concentration 6): 50158 and 49686 and 49223
- Fluorescence competitive binding assay, fluorescence intensity (SfurOBP3; ligand concentration 8): 48228 and 50693 and 49450
- Fluorescence competitive binding assay, fluorescence intensity (SfurOBP3; ligand concentration 10): 46402 and 47349 and 46178
- Fluorescence competitive binding assay, fluorescence intensity (SfurOBP3; ligand concentration 12): 39434 and 38976 and 40288
- Fluorescence competitive binding assay, fluorescence intensity (SfurOBP3; ligand concentration 14): 38805 and 38818 and 38804
- Fluorescence competitive binding assay, fluorescence intensity (SfurOBP3; ligand concentration 16): 34272 and 34325 and 34139
- Fluorescence competitive binding assay, fluorescence intensity (SfurOBP3; ligand concentration 18): 33102 and 34070 and 35044
- Fluorescence competitive binding assay, fluorescence intensity (SfurOBP3; ligand concentration 20): 32236 and 31361 and 31799
- IC50 (SfurOBP3; SfurOBP3, protein and 1-NPN both 2.0 µM, competitor 2-20 µM, read-out: IC50): > 20 µM
- IC50 (SfurOBP11; SfurOBP11, protein and 1-NPN both 2.0 µM, competitor 2-20 µM, read-out: IC50): > 20 µM
- Fluorescence intensity, fluorescence competitive binding assay, OBP11 (SfurOBP11; ligand concentration 2, replicate 1): 20185
- Fluorescence intensity, fluorescence competitive binding assay, OBP11 (SfurOBP11; ligand concentration 2, replicate 2): 20635
- Fluorescence intensity, fluorescence competitive binding assay, OBP11 (SfurOBP11; ligand concentration 2, replicate 3): 20374
- Fluorescence intensity, fluorescence competitive binding assay, OBP11 (SfurOBP11; ligand concentration 4, replicate 1): 19119
- Fluorescence intensity, fluorescence competitive binding assay, OBP11 (SfurOBP11; ligand concentration 4, replicate 2): 21150
- Fluorescence intensity, fluorescence competitive binding assay, OBP11 (SfurOBP11; ligand concentration 4, replicate 3): 19404
- Fluorescence intensity, fluorescence competitive binding assay, OBP11 (SfurOBP11; ligand concentration 6, replicate 1): 20124
- Fluorescence intensity, fluorescence competitive binding assay, OBP11 (SfurOBP11; ligand concentration 6, replicate 2): 20072
- Fluorescence intensity, fluorescence competitive binding assay, OBP11 (SfurOBP11; ligand concentration 6, replicate 3): 19868
- Fluorescence intensity, fluorescence competitive binding assay, OBP11 (SfurOBP11; ligand concentration 8, replicate 1): 18585
- Fluorescence intensity, fluorescence competitive binding assay, OBP11 (SfurOBP11; ligand concentration 8, replicate 2): 21246
- Fluorescence intensity, fluorescence competitive binding assay, OBP11 (SfurOBP11; ligand concentration 8, replicate 3): 19916
- Fluorescence intensity, fluorescence competitive binding assay, OBP11 (SfurOBP11; ligand concentration 10, replicate 1): 19564
- Fluorescence intensity, fluorescence competitive binding assay, OBP11 (SfurOBP11; ligand concentration 10, replicate 2): 19568
- Fluorescence intensity, fluorescence competitive binding assay, OBP11 (SfurOBP11; ligand concentration 10, replicate 3): 19649
- Fluorescence intensity, fluorescence competitive binding assay, OBP11 (SfurOBP11; ligand concentration 12, replicate 1): 19387
- Fluorescence intensity, fluorescence competitive binding assay, OBP11 (SfurOBP11; ligand concentration 12, replicate 2): 19954
- Fluorescence intensity, fluorescence competitive binding assay, OBP11 (SfurOBP11; ligand concentration 12, replicate 3): 20491
- Fluorescence intensity, fluorescence competitive binding assay, OBP11 (SfurOBP11; ligand concentration 14, replicate 1): 19217
- Fluorescence intensity, fluorescence competitive binding assay, OBP11 (SfurOBP11; ligand concentration 14, replicate 2): 19676
- Fluorescence intensity, fluorescence competitive binding assay, OBP11 (SfurOBP11; ligand concentration 14, replicate 3): 19052
- Fluorescence intensity, fluorescence competitive binding assay, OBP11 (SfurOBP11; ligand concentration 16, replicate 1): 18294
- Fluorescence intensity, fluorescence competitive binding assay, OBP11 (SfurOBP11; ligand concentration 16, replicate 2): 18202
- Fluorescence intensity, fluorescence competitive binding assay, OBP11 (SfurOBP11; ligand concentration 16, replicate 3): 18385
- Fluorescence intensity, fluorescence competitive binding assay, OBP11 (SfurOBP11; ligand concentration 18, replicate 1): 17514
- Fluorescence intensity, fluorescence competitive binding assay, OBP11 (SfurOBP11; ligand concentration 18, replicate 2): 18012
- Fluorescence intensity, fluorescence competitive binding assay, OBP11 (SfurOBP11; ligand concentration 18, replicate 3): 18287
- Fluorescence intensity, fluorescence competitive binding assay, OBP11 (SfurOBP11; ligand concentration 20, replicate 1): 16634
- Fluorescence intensity, fluorescence competitive binding assay, OBP11 (SfurOBP11; ligand concentration 20, replicate 2): 17062
- Fluorescence intensity, fluorescence competitive binding assay, OBP11 (SfurOBP11; ligand concentration 20, replicate 3): 17452
- IC50 (SfurOBP2; SfurOBP2, protein and 1-NPN both 2.0 µM, competitor 2-20 µM, read-out: IC50): > 20 µM
- Fluorescence competitive binding assay, OBP2 (raw fluorescence reading) (SfurOBP2; ligand concentration 2 (unit not given), replicate column 1 of 3): 18785
- Fluorescence competitive binding assay, OBP2 (raw fluorescence reading) (SfurOBP2; ligand concentration 2 (unit not given), replicate column 2 of 3): 17646
- Fluorescence competitive binding assay, OBP2 (raw fluorescence reading) (SfurOBP2; ligand concentration 2 (unit not given), replicate column 3 of 3): 18955
- Fluorescence competitive binding assay, OBP2 (raw fluorescence reading) (SfurOBP2; ligand concentration 4 (unit not given), replicate column 1 of 3): 19168
- Fluorescence competitive binding assay, OBP2 (raw fluorescence reading) (SfurOBP2; ligand concentration 4 (unit not given), replicate column 2 of 3): 18029
- Fluorescence competitive binding assay, OBP2 (raw fluorescence reading) (SfurOBP2; ligand concentration 4 (unit not given), replicate column 3 of 3): 18599
- Fluorescence competitive binding assay, OBP2 (raw fluorescence reading) (SfurOBP2; ligand concentration 6 (unit not given), replicate column 1 of 3): 18726
- Fluorescence competitive binding assay, OBP2 (raw fluorescence reading) (SfurOBP2; ligand concentration 6 (unit not given), replicate column 2 of 3): 17846
- Fluorescence competitive binding assay, OBP2 (raw fluorescence reading) (SfurOBP2; ligand concentration 6 (unit not given), replicate column 3 of 3): 18376
- Fluorescence competitive binding assay, OBP2 (raw fluorescence reading) (SfurOBP2; ligand concentration 8 (unit not given), replicate column 1 of 3): 17673
- Fluorescence competitive binding assay, OBP2 (raw fluorescence reading) (SfurOBP2; ligand concentration 8 (unit not given), replicate column 2 of 3): 18323
- Fluorescence competitive binding assay, OBP2 (raw fluorescence reading) (SfurOBP2; ligand concentration 8 (unit not given), replicate column 3 of 3): 17474
- Fluorescence competitive binding assay, OBP2 (raw fluorescence reading) (SfurOBP2; ligand concentration 10 (unit not given), replicate column 1 of 3): 16329
- Fluorescence competitive binding assay, OBP2 (raw fluorescence reading) (SfurOBP2; ligand concentration 10 (unit not given), replicate column 2 of 3): 16489
- Fluorescence competitive binding assay, OBP2 (raw fluorescence reading) (SfurOBP2; ligand concentration 10 (unit not given), replicate column 3 of 3): 16675
- Fluorescence competitive binding assay, OBP2 (raw fluorescence reading) (SfurOBP2; ligand concentration 12 (unit not given), replicate column 1 of 3): 16493
- Fluorescence competitive binding assay, OBP2 (raw fluorescence reading) (SfurOBP2; ligand concentration 12 (unit not given), replicate column 2 of 3): 16176
- Fluorescence competitive binding assay, OBP2 (raw fluorescence reading) (SfurOBP2; ligand concentration 12 (unit not given), replicate column 3 of 3): 16335
- Fluorescence competitive binding assay, OBP2 (raw fluorescence reading) (SfurOBP2; ligand concentration 14 (unit not given), replicate column 1 of 3): 13873
- Fluorescence competitive binding assay, OBP2 (raw fluorescence reading) (SfurOBP2; ligand concentration 14 (unit not given), replicate column 2 of 3): 13950
- Fluorescence competitive binding assay, OBP2 (raw fluorescence reading) (SfurOBP2; ligand concentration 14 (unit not given), replicate column 3 of 3): 13912
- Fluorescence competitive binding assay, OBP2 (raw fluorescence reading) (SfurOBP2; ligand concentration 16 (unit not given), replicate column 1 of 3): 12506
- Fluorescence competitive binding assay, OBP2 (raw fluorescence reading) (SfurOBP2; ligand concentration 16 (unit not given), replicate column 2 of 3): 13445
- Fluorescence competitive binding assay, OBP2 (raw fluorescence reading) (SfurOBP2; ligand concentration 16 (unit not given), replicate column 3 of 3): 12627
- Fluorescence competitive binding assay, OBP2 (raw fluorescence reading) (SfurOBP2; ligand concentration 18 (unit not given), replicate column 1 of 3): 13201
- Fluorescence competitive binding assay, OBP2 (raw fluorescence reading) (SfurOBP2; ligand concentration 18 (unit not given), replicate column 2 of 3): 13156
- Fluorescence competitive binding assay, OBP2 (raw fluorescence reading) (SfurOBP2; ligand concentration 18 (unit not given), replicate column 3 of 3): 13110
- Fluorescence competitive binding assay, OBP2 (raw fluorescence reading) (SfurOBP2; ligand concentration 20 (unit not given), replicate column 1 of 3): 12573
- Fluorescence competitive binding assay, OBP2 (raw fluorescence reading) (SfurOBP2; ligand concentration 20 (unit not given), replicate column 2 of 3): 13554
- Fluorescence competitive binding assay, OBP2 (raw fluorescence reading) (SfurOBP2; ligand concentration 20 (unit not given), replicate column 3 of 3): 12438
- behavioral response of S. furcifera (in words) (S. furcifera adults): strongly attracted
- number of insects choosing hexane arm (S. furcifera adults; adults): 7
- number of insects choosing volatilies arm (S. furcifera adults; adults): 16
- number of insects failed (no choice) (S. furcifera adults; adults): 17
